Reference: US9056867B2, “N-substituted heterocyclyl carboxamides” (NOVARTIS AG, priority 2011, dated 2015)
Read-outs that look alike come from different tables or passages of the source.

Molecular target: T1, ΔF508-CFTR channel (Homo sapiens, UniProt P13569, DEL508-508)
T1 construct: expressed in transfected cells
Assay: CFTR potentiator assays (membrane potential assay, IonWorks Quattro assay, ion transport assay); the patent does not say which one gave the values
Format: cell-based
Conditions: cells stably expressing ΔF508-CFTR, forskolin present, read-out: Ki values in the data measurements described above
Text: CFTR activity can be quantified by measuring the transmembrane potential. The means for measuring the transmembrane potential in a biological system can employ a number of methods including electrophysiological and optical fluoresence-based membrane potential assays.
The optical membrane potential assay utilises a negatively charged potentiometric dye, such as the FLIPR membrane potential dye (FMP) (see Baxter D F, Kirk M, Garcia A F, Raimondi A, Holmqvist M H, Flint K K, Bojanic D, Distefano P S, Curtis R, Xie Y. ‘A novel membrane potential-sensitive fluorescent dye improves cell-based assays for ion channels.’ J Biomol Screen. 2002 Feb.; 7(1):79-85) which when extraceullar is bound to a quenching agent. Upon cellular depolarisation the negatively charged dye redistributes to the intracellular compartment, unbinding from the membrane impermeant quench agent, yielding an increase in fluorescence. This change in fluoresence is proportional to the change in transmembrane potential which can result from the activity of CFTR. The changes in fluorescence can be monitored in real time by an appropriately equipped fluorescence detector such as the FLIPR (fluorometric imaging plate reader) in 96 or 384-well microtitre plates.
Chinese hamster ovary (CHO) cells stably expressing the ΔF508-CFTR channel were used for membrane potential experiments. Cells were maintained at 37° C. in 5% v/v CO2 at 100% humidity in Modified Eagles medium (MEM) supplemenetd with 8% v/v foetal calf serum, 100 μg/ml methotrexate and 100 U/ml penicillin/streptomycin. Cells were grown in 225 cm^2 tissue culture flasks. For membrane potential assays cells were seeded into 96 well plates at 40,000 cells per well, allowed to adhere and then maintained at 26° C. for 48 h to facilitate channel insertion.
The membrane potential screening assay utilised a low chloride ion containing extraceullular solution (˜5 mM) combined with a double addition protocol. The first addition was of buffer with or without test compound followed 5 minutes later by an addition of forskolin (1-20 μM)—this protocol favours maximum chloride efflux in response to ΔF508-CFTR activation. The ΔF508-CFTR mediated chloride ion efflux leads to a membrane depolarisation which is optically monitoried by the FMP dye.
Low chloride extracellular (mM): 120 Na-gluconate, 1.2 CaCl2, 3.3 KH2PO4, 0.8 K2HPO4, 1.2 MgCl2, 10.0 D-glucose, 20.0 HEPES, pH 7.4 with NaOH
FMP dye: made up as per manufacuturers instructions in low chloride extracellular solution detailed above, at 10× final concentration, and stored as 1 mL aliquots at −20° C.
CFTR activity can also be quantified electrophysiologically using the whole-cell configuration of the patch clamp technique (Hamill et al Pflugers Acrhive 1981). This assay directly measures the currents associated with chloride flow through CFTR channels whilst either maintaining or adjusting the transmembrane voltage. This assay can use either single glass micropipettes or parallel planar arrays to measure CFTR activity from native or recombinant cell systems. Currents measured using parallel planar arrays can be quantified using an appropriately equipped instrument such as the IonWorks Quattro (Molecular Devices) or the Qpatch (Sophion). The Quattro system can measure CFTR currents from either a single cell per recording well (HT configuration) or alternatively from a population of 64 cells per well (Population Patch Clamp PPC) (Finkel A, Wittel A, Yang N, Handran S, Hughes J, Costantin J. ‘Population patch clamp improves data consistency and success rates in the measurement of ionic currents.’ J Biomol Screen. 2006 Aug.; 11(5):488-96).
Chinese hamster ovary (CHO) cells stably expressing the ΔF508-CFTR channel were used for IonWorks Quattro experiments. […]

T1 sequence (P13569 with tags, fused parts or gaps DEL508-508): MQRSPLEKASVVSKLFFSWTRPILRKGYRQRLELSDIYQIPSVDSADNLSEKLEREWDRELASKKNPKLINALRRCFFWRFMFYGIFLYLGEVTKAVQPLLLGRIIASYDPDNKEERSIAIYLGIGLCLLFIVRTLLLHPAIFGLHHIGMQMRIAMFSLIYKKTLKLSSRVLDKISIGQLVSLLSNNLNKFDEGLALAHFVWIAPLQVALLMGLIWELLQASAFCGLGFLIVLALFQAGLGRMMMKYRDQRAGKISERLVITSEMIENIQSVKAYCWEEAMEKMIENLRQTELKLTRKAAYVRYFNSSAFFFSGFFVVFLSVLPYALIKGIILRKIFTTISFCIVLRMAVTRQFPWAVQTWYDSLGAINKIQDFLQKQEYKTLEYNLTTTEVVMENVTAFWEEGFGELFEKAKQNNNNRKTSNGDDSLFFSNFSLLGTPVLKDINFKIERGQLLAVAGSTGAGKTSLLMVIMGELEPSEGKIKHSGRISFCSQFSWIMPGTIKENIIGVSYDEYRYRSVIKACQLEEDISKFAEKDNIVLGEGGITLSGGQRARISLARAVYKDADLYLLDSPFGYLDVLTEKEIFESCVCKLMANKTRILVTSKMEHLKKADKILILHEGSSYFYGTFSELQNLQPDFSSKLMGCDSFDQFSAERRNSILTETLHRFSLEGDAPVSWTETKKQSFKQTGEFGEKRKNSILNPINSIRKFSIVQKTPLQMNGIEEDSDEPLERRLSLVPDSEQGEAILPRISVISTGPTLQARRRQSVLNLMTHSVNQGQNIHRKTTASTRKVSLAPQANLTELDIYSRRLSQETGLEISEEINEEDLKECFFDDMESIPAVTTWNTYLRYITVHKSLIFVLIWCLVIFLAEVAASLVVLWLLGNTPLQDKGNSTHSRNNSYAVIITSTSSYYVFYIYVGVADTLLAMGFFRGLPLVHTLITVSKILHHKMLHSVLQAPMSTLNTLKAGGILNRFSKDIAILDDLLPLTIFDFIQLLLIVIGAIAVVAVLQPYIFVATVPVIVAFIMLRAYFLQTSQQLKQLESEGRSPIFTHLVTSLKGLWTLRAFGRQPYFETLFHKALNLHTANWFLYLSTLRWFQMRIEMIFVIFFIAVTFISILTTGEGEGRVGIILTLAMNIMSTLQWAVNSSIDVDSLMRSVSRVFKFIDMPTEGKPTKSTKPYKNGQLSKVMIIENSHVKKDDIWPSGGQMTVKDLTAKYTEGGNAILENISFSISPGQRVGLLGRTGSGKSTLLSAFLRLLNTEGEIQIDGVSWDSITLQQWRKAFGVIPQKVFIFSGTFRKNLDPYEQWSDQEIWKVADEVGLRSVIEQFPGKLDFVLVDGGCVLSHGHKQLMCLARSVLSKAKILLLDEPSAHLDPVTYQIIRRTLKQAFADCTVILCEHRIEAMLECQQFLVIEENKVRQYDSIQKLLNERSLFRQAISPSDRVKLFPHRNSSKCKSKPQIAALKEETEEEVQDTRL

Row | SMILES | Ki (values in nM) [nM] | Ki (values given in μM) [nM]
1 | Cc1cc(Cl)ccc1-c1nc(C(=O)Nc2ccn[nH]2)c(N)cc1C(F)(F)F [Example 25.2, 3-Amino-6-(4-chloro-2-methyl-phenyl)-5-trifluoro methyl-pyridine-2-carboxylic acid (2H-pyrazol-3-yl)-amide] | 13 | –
2 | Cc1cn[nH]c1NC(=O)c1nc(C(F)(F)F)c(C(F)(F)F)nc1N [Example 27, 3-Amino-5,6-bis-trifluoromethyl-pyrazine-2-carboxylic acid (4-methyl-2H-pyrazol-3-yl)-amide] | 19 | –
3 | COc1ccc(-c2nc(C(=O)Nc3ccn[nH]3)c(N)cc2C(F)(F)F)cn1 [Example 26.2, 5-Amino-6′-methoxy-3-trifluoromethyl-[2,3′]bipyridinyl-6-carboxylic acid (2H-pyrazol-3-yl)-amide] | 45 | –
4 | Nc1cc(C(F)(F)F)c(-c2cccc(CN3CCCC3=O)c2)nc1C(=O)Nc1ccn[nH]1 [Example 26.1, 3-Amino-6-[3-(2-oxo-pyrrolidin-1-ylmethyl)-phenyl]-5-trifluoromethyl-pyridine-2-carboxylic acid (2H-pyrazol-3-yl)-amide] | 30 | –
5 | COc1ncccc1-c1nc(C(=O)Nc2cc[nH]n2)c(N)cc1C(F)(F)F [Example 25.3, 5-Amino-2′-methoxy-3-trifluoro methyl-[2,3′]bipyridinyl-6-carboxylic acid (1H-pyrazol-3-yl)-amide] | 14 | –
6 | Nc1cc(C(F)(F)F)c(-c2ccc(F)cc2)nc1C(=O)Nc1cc[nH]n1 [Example 25.1, 3-Amino-6-(4-fluorophenyl)-N-(1H-pyrazol-3-yl)-5-(trifluoromethyl)picolinamide] | 3.8 | –
7 | Cc1nnc(-c2ccc(-c3nc(C(=O)Nc4ccn[nH]4)c(N)cc3C(F)(F)F)cc2)o1 [Example 26.3, 3-Amino-6-[4-(5-methyl-[1,3,4]oxadiazol-2-yl)-phenyl]-5-trifluoromethyl-pyridine-2-carboxylic acid (2H-pyrazol-3-yl)-amide] | – | 160
8 | Nc1nc(C(F)(F)F)c(Br)nc1C(=O)Nc1[nH]ncc1-c1ccccn1 [Example 19, 3-Amino-6-bromo-N-(4-(pyridin-2-yl)-1H-pyrazol-5-yl)-5-(trifluoromethyl)pyrazine-2-carboxamide] | – | 1550
9 | Nc1nc(C(F)(F)F)c(Cl)nc1C(=O)Nc1ccn[nH]1 [Example 14, 3-Amino-6-chloro-5-trifluoromethyl-pyrazine-2-carboxylic acid (2H-pyrazole-3-yl)amide] | – | 255
10 | Nc1cc(C(F)(F)F)c(Br)nc1C(=O)Nc1cc(C(F)(F)F)n[nH]1 [Example 5, 3-Amino-6-bromo-5-trifluoromethyl-pyridine-2-carboxylic acid (5-trifluoromethyl-2H-pyrazol-3-yl)-amide] | – | 70
11 | Nc1cc(C(F)(F)F)c(Br)nc1C(=O)Nc1n[nH]c2nccnc12 [Example 18, 3-Amino-6-bromo-N-(1H-pyrazolo[4,3-b]pyrazin-3-yl)-5-(trifluoromethyl)picolinamide] | – | 4
12 | Nc1cc(C(F)(F)F)c(Cl)nc1C(=O)Nc1ccn[nH]1 [Example 22, 3-Amino-6-chloro-N-(1H-pyrazol-5-yl)-5-(trifluoromethyl)picolinamide] | – | 25
13 | Nc1nc(C(F)(F)F)c(Br)nc1C(=O)Nc1nc(Cc2ccccc2)n[nH]1 [Example 24, 3-Amino-N-(3-benzyl-1H-1,2,4-triazol-5-yl)-6-bromo-5-(trifluoromethyl)pyrazin-2-carboxamide] | – | 20
14 | Nc1cc(C(F)(F)F)c(Br)nc1C(=O)Nc1ccn[nH]1 [Example 7, 3-Amino-6-bromo-5-trifluoromethyl-pyridine-2-carboxylic acid (2H-pyrazol-3-yl)-amide] | – | 10
